Experimental data as given in US20050037923A1, “Herbicidal mixture based on 7-pyrazolybenzoxazoles” (BASF Aktiengesellschaft, priority 2001, published 2005).
Counter-ions that a name gives are not always drawn.

What was measured:
AVEFA = assay: Greenhouse test, post-emergence herbicidal action; type: in vivo, wild oat
Excerpt: (§1) For the post-emergence treatment, the test plants were first grown to a height of 3 to 20 cm, depending on the plant habit, and only then treated. Here, the herbicidal compositions were suspended or emulsified in water as distribution medium and sprayed using finely distributing nozzles.
(§2) The respective components A and B and/or C were formulated as 10% by weight strength emulsion concentrate and introduced to the spray liquor with the amount of solvent system used for applying the active compound. In the examples, the solvent used was water.
(§3) The test period extended over 21 days. During this time, the plants were tended, and their response to the treatments with active compound was evaluated.
(§4) The evaluation for the damage caused by the chemical compositions was carried out using a scale from 0 to 100%, compared to the untreated control plants. Here, 0 means no damage and 100 means complete destruction of the plants.
(§5) In the examples below, the value E which is to be expected if the activity of the individual active compounds is just additive was calculated using the method of S. R. Colby (1967) “Calculating synergistic and antagonistic responses of herbicide combinations”, Weeds 15, p. 22 ff. E=X+Y—(X·Y/100) where • X=effect in percent using active compound A at an application rate a; • Y=effect in percent using active compound B at an application rate b; • E=expected effect (in %) of A+B at application rates a+b.
(§6) The plants used in the greenhouse experiments were of the following species: […]

POLPE = assay: Greenhouse test, post-emergence herbicidal action; type: in vivo, ladysthumb
Excerpt: as §1, §2, §3, §4, §5, §6

BIDPI [1] = assay: Greenhouse test, post-emergence herbicidal action; type: in vivo, hairy beggarticks
Excerpt: as §1, §2, §3, §4, §5, §6

GALAP = assay: Greenhouse test, post-emergence herbicidal action; type: in vivo, catchweed bedstraw
Excerpt: as §1, §2, §3, §4, §5, §6

ECHCG = assay: Greenhouse test, post-emergence herbicidal action; type: in vivo, barnyardgrass
Excerpt: as §1, §2, §3, §4, §5, §6

SETVI = assay: Greenhouse test, post-emergence herbicidal action; type: in vivo, green foxtail; conditions: application rate 15.63 g/ha
Excerpt: as §1, §2, §3, §4, §5, §6

COMBE = assay: Greenhouse test, post-emergence herbicidal action; type: in vivo, tropical spiderwort; conditions: 21 days
Excerpt: as §1, §2, §3, §4, §5, §6

BRAPL = assay: Greenhouse test, post-emergence herbicidal action; type: in vivo, alexandergrass
Excerpt: as §1, §2, §3, §4, §5, §6

SETFA = assay: Greenhouse test, post-emergence herbicidal action; type: in vivo, giant foxtail; conditions: 21 days
Excerpt: as §1, §2, §3, §4, §5, §6

crop plants = assay: Safener action, pre-emergence, damage to crop plants; type: in vivo; conditions: 21 days, application rate 100 g/ha
Excerpt: (§7) For the pre-emergence treatment, the test plants were sown is pots 1-2 days later, i.e. prior to germination, the pots were sprayed with the finely distributed herbicidal compositions, which had been suspended in water.
as §2, §4
As in the example above, test plants were grown, treated with the mixture according to the invention by the Pre-emergence method and, after a test period of 21 days, evaluated using a scale from 0 to 100% damage. The test plants used were crop plants.
A safener action is present if the damage to the crop plant caused by using a mixture according to the invention which comprises a safener C) is less than the damage caused when active compound A or active compounds A and B are used without safener.

ABUTH [2] = assay: Greenhouse test, post-emergence herbicidal action; type: in vivo, velvet leaf; conditions: 21 days
Excerpt: as §1, §2, §3, §4, §5, §6

ABUTH [3] = assay: Greenhouse test, pre-emergence herbicidal action; type: in vivo, velvet leaf
Excerpt: as §7, §2, §3, §4, §5, §6

BIDPI [4] = assay: Greenhouse test, pre-emergence herbicidal action; type: in vivo, hairy beggarticks
Excerpt: as §7, §2, §3, §4, §5, §6

[5] = application rate 15.63 g/ha, 21 days
[6] = application rate 31.25 g/ha, 21 days
[7] = application rate 3.91 g/ha (Example 26)
[8] = application rate 62.5 g/ha, 21 days
[9] = application rate 7.81 g/ha, 21 days
[10] = application rate 3.91 g/ha (Example 27)
[11] = application rate 62.5 g/ha (Example 24)
[12] = application rate 125 g/ha (Example 24)
[13] = application rate 0.49 g/ha (Example 32)
[14] = application rate 0.98 g/ha (Example 32)
[15] = application rate 125 g/ha, 21 days
[16] = application rate 125 g/ha (Example 28)
[17] = application rate 250 g/ha (Example 28)
[18] = application rate 125 g/ha (Example 32)
[19] = application rate 250 g/ha (Example 32)

Compound: CCOC(=O)c1cnn(C)c1S(=O)(=O)NC(=O)Nc1nc(OC)cc(OC)n1 [pyrazosulfuron-ethyl, reference compound]
- Herbicidal action against AVEFA, Found (AVEFA; [5]): 0%
- Herbicidal action against AVEFA, Found (AVEFA; [6]): 10%
- Herbicidal action against POLPE, Found (POLPE; [5]): 40%
- Herbicidal action against POLPE, Found (POLPE; [6]): 55%

Compound: COc1cc(OC)nc(NC(=O)NS(=O)(=O)c2ncccc2C(=O)N(C)C)n1 [nicosulfuron]
- Herbicidal action against BIDPI, Found (BIDPI [1]; [7]): 70%
- Herbicidal action against BIDPI, Found (BIDPI [1]; application rate 7.81 g/ha (Example 26)): 80%

Compound: COCc1cnc(C2=NC(C)(C(C)C)C(=O)N2)c(C(=O)O)c1 (centres unmarked) [imazamox, reference compound]
- Herbicidal action against BIDPI, Found (BIDPI [1]; [6]): 20%
- Herbicidal action against BIDPI, Found (BIDPI [1]; [8]): 60%

Compound: CCCC(=NOCC(C)Oc1ccc(Cl)cc1)C1=C(O)CC(C2CCCSC2)CC1=O (centres unmarked) [profoxydim, reference compound]
- Herbicidal action against GALAP, Found (GALAP; [9]): 30%
- Herbicidal action against GALAP, Found (GALAP; [5]): 30%

Compound: CC(C)c1ccc(NC(=O)N(C)C)cc1 [isoproturon]
- Herbicidal action against BIDPI, Found (BIDPI [1]; application rate 62.5 g/ha): 30%
- Herbicidal action against BIDPI, Found (BIDPI [1]; application rate 125 g/ha): 60%

Compound: CCCOc1nn(C(=O)[N-]S(=O)(=O)c2ccccc2C(=O)OC)c(=O)n1C.[Na+] [propoxycarbazone sodium salt]
- Herbicidal action against BIDPI, Found (BIDPI [1]; [10]): 30%
- Herbicidal action against BIDPI, Found (BIDPI [1]; application rate 7.81 g/ha (Example 27)): 40%

Compound: O=C(O)c1c(Cl)ccc2cc(Cl)cnc12 [quinclorac]
- Herbicidal action against POLPE, Found (POLPE; [11]): 15%
- Herbicidal action against POLPE, Found (POLPE; [12]): 15%
- Herbicidal action against ECHCG, Found (ECHCG; [11]): 10%
- Herbicidal action against ECHCG, Found (ECHCG; [12]): 10%

Compound: O=C(Nc1ccc(F)cc1)c1cccc(Oc2cccc(C(F)(F)F)c2)n1 [picolinafen]
- Herbicidal action against SETVI, Found (SETVI): 40%

Compound: C[n+]1ccc(-c2cc[n+](C)cc2)cc1 [paraquat]
- Herbicidal action against AVEFA, Found (AVEFA; application rate 62.5 g/ha): 70%
- Herbicidal action against AVEFA, Found (AVEFA; application rate 125 g/ha): 80%

Compound: CC(C)c1nc2c(Cl)cc(Cl)c(-c3nn(C)c(OC(F)F)c3Cl)c2o1 [I.18]
- Herbicidal action against BIDPI, Found (BIDPI [1]; application rate 1.95 g/ha (Example 26)): 60%
- Herbicidal action against BIDPI, Found (BIDPI [1]; application rate 1.95 g/ha (Example 27)): 60%
- Herbicidal action against BIDPI, Found (BIDPI [1]; [7]): 60%
- Herbicidal action against BIDPI, Found (BIDPI [1]; [10]): 60%

Compound: CCc1cnc(C2=NC(C)(C(C)C)C(=O)N2)c(C(=O)O)c1 (centres unmarked) [imazethapyr, reference compound]
- Herbicidal action against POLPE, Found (POLPE; [5]): 40%
- Herbicidal action against POLPE, Found (POLPE; [6]): 60%
- Herbicidal action against COMBE, Found (COMBE; application rate 15.63 g/ha): 20%
- Herbicidal action against COMBE, Found (COMBE; application rate 31.25 g/ha): 40%

Compound: CCCc1nc2c(Cl)cc(F)c(-c3nn(C)c(OC(F)F)c3Br)c2o1 [I.15]
- Herbicidal action against BRAPL, Found (BRAPL; application rate 0.49 g/ha): 30%
- Herbicidal action against BRAPL, Found (BRAPL; application rate 0.98 g/ha): 75%
- Herbicidal action against GALAP, Found (GALAP; application rate 0.49 g/ha (Example 29)): 40%
- Herbicidal action against GALAP, Found (GALAP; application rate 0.49 g/ha (Example 30)): 40%
- Herbicidal action against GALAP, Found (GALAP; [13]): 40%
- Herbicidal action against GALAP, Found (GALAP; application rate 0.98 g/ha (Example 29)): 70%
- Herbicidal action against GALAP, Found (GALAP; application rate 0.98 g/ha (Example 30)): 70%
- Herbicidal action against GALAP, Found (GALAP; [14]): 70%
- Herbicidal action against BIDPI, Found (BIDPI [1]; application rate 0.49 g/ha): 30%
- Herbicidal action against BIDPI, Found (BIDPI [1]; application rate 0.98 g/ha): 40%
- Herbicidal action against ECHCG, Found (ECHCG; [13]): 30%
- Herbicidal action against ECHCG, Found (ECHCG; [14]): 40%

Compound: CCNc1nc(Cl)nc(NC(C)C)n1 [atrazine, reference compound]
- Herbicidal action against ECHCG, Found (ECHCG; [8]): 45%
- Herbicidal action against ECHCG, Found (ECHCG; [15]): 65%

Compound: CCc1cccc(C)c1N(C(=O)CCl)[C@@H](C)COC [S-metolachlor]
- Herbicidal action against GALAP, Found (GALAP; application rate 125 g/ha (Example 29)): 0%
- Herbicidal action against GALAP, Found (GALAP; application rate 250 g/ha (Example 29)): 20%

Compound: CC/C(=N\OC/C=C/Cl)C1=C(O)CC(C2CCOCC2)CC1=O (centres unmarked) [tepraloxydim, reference compound]
- Herbicidal action against AVEFA, Found (AVEFA; [9]): 70%
- Herbicidal action against AVEFA, Found (AVEFA; [5]): 80%
- Herbicidal action against SETFA, Found (SETFA; application rate 7.81 g/ha): 70%
- Herbicidal action against SETFA, Found (SETFA; application rate 15.63 g/ha): 80%

Compound: CC(C)N.O=C(O)CNCP(=O)(O)O [glyphosate isopropylamine salt]
- Herbicidal action against AVEFA, Found (AVEFA; application rate 250 g/ha (Example 15)): 40%
- Herbicidal action against AVEFA, Found (AVEFA; application rate 250 g/ha (Example 16)): 40%

Compound: C=CCN(CC=C)C(=O)C(Cl)Cl [dichlormid]
- Damage to the crop plant corn (ZEAMX), cultivar Magister (crop plants): 13%
- Damage to the crop plant corn (ZEAMX), cultivar P3751 (crop plants): 0%

Compound: CP(=O)(O)CCC(N)C(=O)O (centres unmarked) [glufosinate ammonium salt]
- Herbicidal action against BRAPL, Found (BRAPL; application rate 125 g/ha (Example 17)): 45%
- Herbicidal action against BRAPL, Found (BRAPL; application rate 125 g/ha (Example 18)): 45%

Compound: CS(=O)(=O)c1ccc(C(=O)C2C(=O)CCCC2=O)c([N+](=O)[O-])c1 [mesotrione]
- Herbicidal action against ECHCG, Found (ECHCG; application rate 7.81 g/ha): 45%
- Herbicidal action against ECHCG, Found (ECHCG; application rate 15.63 g/ha): 70%

Compound: COc1c(Cl)ccc(Cl)c1C(=O)O [dicamba]
- Herbicidal action against BRAPL, Found (BRAPL; [16]): 20%
- Herbicidal action against BRAPL, Found (BRAPL; [17]): 20%
- Herbicidal action against AVEFA, Found (AVEFA; [16]): 20%
- Herbicidal action against AVEFA, Found (AVEFA; [17]): 20%

Compound: CCC(C)(CC)c1cc(NC(=O)c2c(OC)cccc2OC)on1 [isoxaben]
- Herbicidal action against GALAP, Found (GALAP; [18]): 0%
- Herbicidal action against GALAP, Found (GALAP; [19]): 0%
- Herbicidal action against ECHCG, Found (ECHCG; [18]): 0%
- Herbicidal action against ECHCG, Found (ECHCG; [19]): 0%

Compound: CNC.O=C(O)COc1ccc(Cl)cc1Cl [2,4-D dimethylamine salt]
- Herbicidal action against BRAPL, Found (BRAPL; application rate 31.25 g/ha): 10%
- Herbicidal action against BRAPL, Found (BRAPL; application rate 62.5 g/ha): 15%
- Herbicidal action against BIDPI, Found (BIDPI [1]; application rate 31.25 g/ha): 80%
- Herbicidal action against BIDPI, Found (BIDPI [1]; application rate 62.5 g/ha (Example 31)): 80%

Compound: CC(C)N1C(=O)c2ccccc2NS1(=O)=O [bentazone sodium salt, reference compound]
- Herbicidal action against ABUTH, Found (ABUTH [2]; application rate 125 g/ha): 0%
- Herbicidal action against ABUTH, Found (ABUTH [2]; application rate 250 g/ha): 20%
- Herbicidal action against POLPE, Found (POLPE; [15]): 15%
- Herbicidal action against POLPE, Found (POLPE; application rate 250 g/ha, 21 days): 25%

Compound: Cc1cnc(C2=NC(=O)C(C)(C(C)C)N2)c(C(=O)O)c1 (centres unmarked) [imazapic, reference compound]
- Herbicidal action against POLPE, Found (POLPE; [5]): 75%
- Herbicidal action against POLPE, Found (POLPE; [6]): 80%
- Herbicidal action against COMBE, Found (COMBE; application rate 15.63 g/ha): 0%
- Herbicidal action against COMBE, Found (COMBE; application rate 31.25 g/ha): 40%

Compound: CC1(C)CON(Cc2ccccc2Cl)C1=O [clomazone]
- Herbicidal action against POLPE, Found (POLPE; application rate 125 g/ha): 75%
- Herbicidal action against POLPE, Found (POLPE; application rate 250 g/ha): 75%

Compound: C/C(=N\NC(=O)Nc1cc(F)cc(F)c1)c1ncccc1C(=O)O [diflufenzopyr sodium salt]
- Herbicidal action against ABUTH, Found (ABUTH [3]; application rate 62.5 g/ha): 10%
- Herbicidal action against ABUTH, Found (ABUTH [3]; application rate 125 g/ha): 30%
- Herbicidal action against BIDPI, Found (BIDPI [4]; application rate 62.5 g/ha): 40%
- Herbicidal action against BIDPI, Found (BIDPI [4]; application rate 125 g/ha): 70%
